In patent US20130178523A1, “ANTI-CANCER COMPOSITIONS AND METHODS” (THE PENN STATE RESEARCH FOUNDATION, priority 2007, published 2013):
Read-outs that look alike come from different tables or passages of the source.

Tests used:
[1] = test system: T-98-G; experiment: MTS assay, glioblastoma cells; conditions: Homo sapiens, T98G, 24 h
[2] = test system: UACC 903 melanoma cells; experiment: MTS cell viability assay, UACC 903; conditions: Homo sapiens, UACC-903, 24 h
[3] = test system: PC-3; experiment: MTS assay, prostate cancer cells; conditions: Homo sapiens, PC-3, 24 h
[4] = test system: MDA-MB-231; experiment: MTS assay, breast cancer cells; conditions: Homo sapiens, MDA-MB-231, 24 h
[5] = test system: Caco-2; experiment: MTS assay, colon cancer cells; conditions: Homo sapiens, Caco-2, 24 h
[6] = test system: HT-1080; experiment: MTS assay, fibrosarcoma cells; conditions: Homo sapiens, HT-1080, 24 h
[7] = test system: UACC 903 melanoma cells; experiment: Tumor development in nude mice, subcutaneous UACC 903, i.p. treatment; conditions: for melanoma tumor volume: 0.76 μmoles (3 ppm selenium) i.p. thrice per week, day 24, doses 3× lower than isothiocyanates; for tumor burden: UACC 903
[8] = test system: 1205 Lu melanoma cells; experiment: MTS cell viability assay, 1205 Lu; conditions: Homo sapiens, 24 h
[9] = test system: WM115 melanoma cells; experiment: MTS cell viability assay, WM115; conditions: Homo sapiens, WM-115, 24 h
[10] = test system: UACC 903 cells; experiment: Cell cycle analysis (propidium iodide, FACScan); conditions: 24 hours
[11] = test system: UACC 903 cells; experiment: Apo-ONE caspase-3/7 apoptosis assay; type: cell-based, human; conditions: 24 hours; for cellular apoptosis with increasing concentrations (caspase-3/7 activity, words): 5, 10, 15 μM
Description: Apoptosis rates are measured using an Apo-ONE Homogenous caspase-3/7 Assay kit (Promega Corporation, Madison, Wis.).
The isoselenocyanate compounds promote apoptosis in melanoma cells. […] The graphs in FIGS. 3A and 3B show fold increase in caspase-3/7 activity relative to DMSO vehicle treated cells on the x-axis. Results represent average of 3 independent experiments. Bars indicate SEM.

[12] = test system: UACC 903 cells; experiment: BrdU ELISA cellular proliferation; type: cell-based, human; conditions: 24 hours; for proliferative potential with increasing concentrations: 5, 10, 15 μM
Description: Proliferation rate is measured using a BrdU ELISA kit (Roche Applied Sciences, Indianapolis, Ind.).
BrdUrd is used to label cells for 4-6 hours. At 15 μM concentration, ISC-4 and ISC-6 reduced UACC 903 cellular proliferative potential by ˜80-90% compared to controls. Results represent the average of 3 independent experiments; bars represent SEM. The average value is represented as the percentage of control DMSO treated cells.

[13] = test system: Akt signaling pathway; experiment: Western blot of Akt signaling pathway in cultured melanoma cells (FIG. 9); conditions: 24 hours
[14] = Toxicity assessments in nude mice (blood parameters, histology); type: in vivo
Excerpt: Animals are sacrificed by CO2 asphyxiation and blood collected from each animal in plasma separator tubes with lithium heparin (BD Microtainer, BD, Franklin Lakes, N.J.) following cardiac puncture and analyzed for AST (aspartate aminotransferase), ALT, (alanyl aminotransferase), alkaline phosphatase, glucose and creatinine to ascertain liver, heart, kidney and pancreas related toxicity. For morphological examination of blood cells, whole blood is collected in microtainer tubes containing K2EDTA (BD Microtainer, BD, Franklin Lakes, N.J.) and RBC, WBC, lymphocytes, monocytes, eosinophils, platelets, total hemoglobin and hematocrit percentage analyzed. Blood is also microscopically examined for segregates, polychromatin bodies, and smudge cells. A portion of liver, heart, kidney, spleen, intestine pancreas and adrenal from each animal is formalin fixed and paraffin-embedded to examine toxicity-related changes in cell or organ morphology by H&E staining.

[15] = test system: 1205 Lu melanoma cells; experiment: Tumor development in nude mice, subcutaneous 1205 Lu, i.p. treatment; type: in vivo; conditions: 0.76 μmoles i.p. thrice per week
Excerpt: (Monday, Wednesday and Friday).

[16] = test system: CaCO2 (Colon Carcinoma); experiment: IC-50 in various cell lines (Table V), CaCO2; type: cell-based; conditions: Homo sapiens, Caco-2
[17] = test system: HT1080 (Soft Tissue Sarcoma); experiment: IC-50 in various cell lines (Table V), HT1080; type: cell-based; conditions: Homo sapiens, HT-1080
[18] = test system: MDA-MB 231 (breast); experiment: IC-50 in various cell lines (Table V), MDA-MB 231; type: cell-based; conditions: Homo sapiens
[19] = test system: PC-3 (Prostate); experiment: IC-50 in various cell lines (Table V), PC-3; type: cell-based
[20] = test system: FF2441 (fibroblast cells); experiment: IC-50 in various cell lines (Table V), FF2441; type: cell-based; conditions: Homo sapiens
[21] = test system: 1205LU (Melanoma); experiment: IC-50 in various cell lines (Table V), 1205LU; type: cell-based; conditions: Homo sapiens
[22] = test system: IGROV-1 (ovarian carcinoma); experiment: IC-50 in various cell lines (Table V), IGROV-1; type: cell-based; conditions: Homo sapiens
[23] = test system: A549 (lung); experiment: IC-50 in various cell lines (Table V), A549; type: cell-based; conditions: Homo sapiens
[24] = test system: UACC-903 (Melanoma); experiment: IC-50 in various cell lines (Table V), UACC-903; type: cell-based; conditions: Homo sapiens
[25] = test system: UACC 903M cells; experiment: IC50 of NAC conjugate in UACC 903M cells; type: cell-based
[26] = 0.76 μmoles i.p. thrice per week

| Compound | IC50 [1] | IC50 [2] | IC50 [3] | IC50 [4] | IC50 [5] | IC50 [6] | IC50 [8] | IC50 [9] | G0/G1 cell population ([10]; 15 μM) | G2/M cell population ([10]; 15 μM) | S cell population ([10]; 15 μM) | subG0/G1 cell population ([10]; 15 μM) | further results |
| --- | --- | --- | --- | --- | --- | --- | --- | --- | --- | --- | --- | --- | --- |
| S=C=NCc1ccccc1 [BITC, Benzyl isothiocyanate, reference compound] | > 100 µM | 15 µM | > 50 µM | 42 ± 3 µM | 15 ± 2 µM | > 50 µM | > 25 µM | 13 µM | – | – | – | – | effect on tumor size ([7]; 2.5 micromoles i.p. thrice per week, FIG. 18C): most effective |
| [Se]=C=NCc1ccccc1 [ISC-1, Benzyl Isoselenocyanate] | 43 ± 4 µM | 16 µM | 24 ± 1 µM | 29 ± 2 µM | 13 ± 3 µM | 13 ± 3 µM | > 25 µM | > 25 µM | – | – | – | – | effect on tumor size ([7]; 0.76 μmoles i.p. thrice per week, Example 30): failed to show any effect |
| [Se]=C=NCCc1ccccc1 [ISC-2, Phenylethyl Isoselenocyanate] | 24 ± 1 µM | 12 µM | 16 ± 1 µM | 20 ± 3 µM | 11 ± 1 µM | 12 ± 3 µM | 18 µM | 8 µM | – | – | – | – | melanoma tumor volume [7]: reduce tumor volume |
| [Se]=C=NCCCCCCc1ccccc1 [ISC-6, Phenylhexyl Isoselenocyanate] | 23 ± 2 µM | 10 ± 1 µM | 14 ± 1 µM | 22 ± 2 µM | 10 ± 1 µM | 12 ± 1 µM | 7 µM | 7 µM | 41.6 | 26.1 | 32.2 | 15.9 | G0/G1 cell population ([10]; 5 μM): 56.8; G2/M cell population ([10]; 5 μM): 13.5; S cell population ([10]; 5 μM): 31.5; subG0/G1 cell population ([10]; 5 μM): 1.5; G0/G1 cell population ([10]; 10 μM): 44.9; G2/M cell population ([10]; 10 μM): 24.5; S cell population ([10]; 10 μM): 30.5; subG0/G1 cell population ([10]; 10 μM): 7.6; cellular apoptosis with increasing concentrations (caspase-3/7 activity, words) [11]: increase cellular apoptosis; fold more effective than PBITC at inducing apoptosis ([11]; caspase-3/7 activity, 5-15 μM): ~2 fold; proliferative potential with increasing concentrations [12]: decreased proliferative potential; fold more effective than PBITC or PHITC at inhibiting cellular proliferation ([12]; 5-15 μM): ~2 fold; melanoma tumor volume [7]: reduce tumor volume; concentration completely inhibiting the Akt3 pathway (Western blot) [13]: 10 µM |
| S=C=NCCCCc1ccccc1 [PBITC, phenylbutylisothiocyanate, reference compound] | 35 ± 1 µM | 15 ± 1 µM | 24 ± 2 µM | 27 ± 2 µM | 27 ± 2 µM | 15 ± 1 µM | 19 ± 5 µM | 7 ± 1 µM | 42.1 | 27.4 | 30.5 | 20.8 | G0/G1 cell population ([10]; 5 μM): 37.4; G2/M cell population ([10]; 5 μM): 34.7; S cell population ([10]; 5 μM): 27.8; subG0/G1 cell population ([10]; 5 μM): 4.9; G0/G1 cell population ([10]; 10 μM): 37.2; G2/M cell population ([10]; 10 μM): 31.9; S cell population ([10]; 10 μM): 30.9; subG0/G1 cell population ([10]; 10 μM): 10.4; blood SGOT, SGPT, alkaline phosphatase, glucose and creatinine ([14]; 0.76 μmoles i.p. 3 times per week for 3 weeks, compared to vehicle DMSO): did not alter parameters; basal urea nitrogen (BUN), creatinine and glucose levels ([14]; treated versus control animals): not significantly different; cellular apoptosis with increasing concentrations (caspase-3/7 activity, words) [11]: increase cellular apoptosis; tumor burden [15]: ineffective at reducing tumor burden; proliferative potential with increasing concentrations [12]: decreased proliferative potential; tumor burden [7, 26]: ineffective at reducing tumor burden |
| S=C=NCCc1ccccc1 [PEITC, phenylethyl isothiocyanate, reference compound] | > 100 µM | 12 ± 1 µM | 24 ± 2 µM | 38 ± 6 µM | 14 ± 2 µM | 15 ± 1 µM | 24 ± 2 µM | 12 ± 1 µM | – | – | – | – | – |
| S=C=NCCCCCCc1ccccc1 [PHITC, Phenylhexylisothiocyanate] | 26 ± 2 µM | 15 ± 2 µM | 17 ± 1 µM | 24 ± 2 µM | 49 ± 9 µM | 29 ± 3 µM | 11 ± 4 µM | 8 ± 1 µM | 40.7 | 29.7 | 29.6 | 12.5 | G0/G1 cell population ([10]; 5 μM): 58.7; G2/M cell population ([10]; 5 μM): 13.1; S cell population ([10]; 5 μM): 28.2; subG0/G1 cell population ([10]; 5 μM): 1.4; G0/G1 cell population ([10]; 10 μM): 43.8; G2/M cell population ([10]; 10 μM): 27.5; S cell population ([10]; 10 μM): 28.7; subG0/G1 cell population ([10]; 10 μM): 5.4; cellular apoptosis with increasing concentrations (caspase-3/7 activity, words) [11]: increase cellular apoptosis; tumor burden [15]: ineffective at reducing tumor burden; proliferative potential with increasing concentrations [12]: decreased proliferative potential; tumor burden [7, 26]: ineffective at reducing tumor burden |
| N#C[Se]CCCCCCc1ccccc1 [PHSC, Phenylhexyl selenocyanate] | – | – | – | – | – | – | – | – | 61.4 | 11.5 | 26.9 | 2.4 | – |
| C[S+]([O-])CCCCN=C=[Se] (stereo not drawn) [SFN Iso Se, 1-isoselenocyanato-4-(methylsulfinyl)butane] | – | – | – | – | – | – | – | – | – | – | – | – | IC50 [16]: 16 ± 0.4 µM; IC50 [17]: 25.6 ± 1.82 µM; IC50 ([18]; MDA-MB-231): 20 ± 0.46 µM; IC50 [19]: 24.8 ± 0.58 µM; IC50 ([20]; FF2441): > 50 µM; IC50 ([21]; 1205Lu): 39.2 ± 2 µM; tumor development ([7]; 0.76 micromoles (3 ppm selenium) i.p., compared to controls, FIG. 14A): inhibition of tumor development; IC50 ([22]; IGROV-1): > 50 µM; IC50 ([23]; A549): 35 ± 1.7 µM; IC50 ([24]; UACC-903): 17 ± 0.95 µM |
| C[S+]([O-])CCCCN=C=S (stereo not drawn) [SFN, sulforaphane, reference compound] | – | – | – | – | – | – | – | – | – | – | – | – | IC50 ([16]; CaCO2 (Colon Carcinoma), read-out: IC-50): 48 ± 5.9 µM; IC50 ([17]; HT1080 (Soft Tissue Sarcoma), read-out: IC-50): > 50 µM; IC50 ([18]; MDA-MB 231 (breast), read-out: IC-50): 57 ± 5 µM; IC50 ([19]; PC-3 (Prostate), read-out: IC-50): > 50 µM; IC50 ([20]; FF2441 (fibroblast cells), read-out: IC-50): > 50 µM; IC50 ([21]; 1205LU (Melanoma), read-out: IC-50): > 50 µM; IC50 ([22]; IGROV-1 (ovarian carcinoma), read-out: IC-50): > 50 µM; IC50 ([23]; A549 (lung), read-out: IC-50): 73 ± 3.6 µM; IC50 ([24]; UACC-903 (Melanoma), read-out: IC-50): 40 ± 0.89 µM |
| CC(=O)NC(CSC(=[Se])NCCCCc1ccccc1)C(=O)O (stereo not drawn) [compound 5] | – | – | – | – | – | – | – | – | – | – | – | – | IC50 [25]: 17 ± 2 µM |
